This note sets out measurements from patent US12497392B2, “EP300/CBP inhibitor” (HINOVA PHARMACEUTICALS INC., priority 2019, dated 2025).

One test concerns the target CBP BRD (Homo sapiens (Human), UniProt Q92793). Briefly: CBP AlphaScreen bromodomain (BRD) binding test. As for the experimental part:
(§1) CBP and EP300AlphaScreen Test:
(§2) • 1. Prepare 1× concentration of test buffer • 2. Preparation of compound
(§3) The compound was firstly diluted in a ratio of 1:1000 relative to the final concentration using a Precision automatic sampler (by 3× gradient dilution method): • 1) 50 μL of compound solution with a storage concentration of 10 mM was transferred to A2 well of a 96-well plate using an Echo automatic sampler. • 2) 30 μL of DMSO was transferred to well A1, and wells A3 to A12 with Precision™. • 3) 15 μL solution was transferred from A2 to A3 by Precision, and this operation was sequentially repeated until 15 μL solution was transferred from well A10 to well A11. Thus, a 1:3 gradient dilution was completed. • 4) The compound plate was centrifuged at a speed of 1000 r/min for one minute. • 3. Preparation of test plate
(§4) 20 nL of solution was transferred from each concentration well of the compound plate to the test plate using an Echo automatic sampler: from well A1 of the preparation plate to wells A1 and A2 of the test plate, and from well A2 of the preparation plate to wells A3 and A4 of the test plate. • 4. Binding test of bromodomain (BRD) • 1) Preparation of 2-fold solution of protein and polypeptide
(§5) The protein and polypeptide were dissolved in a 1× concentration of detection buffer. • 2) 10 μL of protein and polypeptide solution was transferred to each well in columns 3 to 24 in the test plate, and 10 μL of 1× test buffer was transferred to wells in columns 1 to 2 in the test plate as negative control. • 3) The test plate was centrifuged at a speed of 1000 r/min for one minute. • 4) The test plate was incubated at room temperature for 15 min. • 5) A 2-fold receptor and donor solution was prepared by dissolving acceptor and donor beads with one-fold test buffer. • 6) 2-fold receptor and donor solutions were transferred to the test plate.
(§6) 15 μL of acceptor and donor solution was added and light was avoided. • 7) The test plate was centrifuged at a speed of 1000 r/min for one minute and then incubated at room temperature for 60 min. • 5. The Endpoints were Read in EnSpire and Alpha Modes. • 6. Curve fitting
(§7) The experimental data was entered into an Excel document and the inhibition rate Inh % was calculated using equation (1): Inh %=(Max−Signal)/(Max−Min)×100 Equation (1): wherein, Max: control containing DMSO, Min: low control containing DMSO,
(§8) The obtained data were entered into the XL-Fit software, and the IC50 value was calculated using equation (2): Y=Bottom+(Top−Bottom)/(1+10^((Log IC50−X)×Hill Slope)) Equation (2): II. Experimental Results

The target in a further test is EP300 BRD (Homo sapiens (Human), UniProt Q09472). Description: EP300 AlphaScreen bromodomain (BRD) binding test. As to the method: as §1, §2, §3, §4, §5, §6, §7, §8
(In general: Bead proximity is the source of the signal in Alpha formats.)

Test [1] has as its system CWR22RV1 cells. Briefly: Proliferation of prostate cancer CWR22RV1 cells (CCK-8, 6 days). Type of test: cell-based. As for the experimental part: (§9) • (1) CWR22RV1 prostate cancer cells were subcultured in cell culture medium, and well-grown cells were inoculated into 96-well plates with 80 μL per well and 1500 cells per well, and then the plate was cultured overnight at 37° C. in a 5% CO2 incubator. • (2) Drug was prepared as 30 mM of stock solution with dimethylsulfoxide (DMSO). Prior to use, the stock solution was diluted in a ratio of 1:3 with DMSO and then further diluted in a ratio of 1:3 to obtain 9 gradient concentrations. Each concentration of compound was diluted in a ratio of 1:200 with culture medium (to ensure the concentration of DMSO in the culture system was 0.1%). Two wells were set for each concentration. 20 μL of diluted compound solution was added to the cell culture well (with a final concentration of 10 μM, 3.3 μM, 1.1 μM, etc.), and then the plate was gently shaken to mix well. In addition, three negative control wells containing only cells and three blank control wells containing only culture medium (6 wells being each added with DMSO diluted in a ratio of 1:200 using 20 μL of culture medium) were included. 2. Test Results: • (1) After the plate was cultured for 6 days, 10 μL of CCK-8 was added to each well, and then the plate was continually cultured in a 5% CO2 incubator at 37° C. for 2.5 h. • (2) The absorbance (OD value) was measured at 450 nm with a microplate reader. • (3) Data were analyzed using the Dose-response-inhibition equation in the software GraphPad Prisms 6 to obtain IC50 values. 3. Experimental Results

A further test deals with OPM-2. Briefly: Proliferation of OPM-2 multiple myeloma cells (CCK-8). Type of test: cell-based. The following applies: multiple myeloma cell line OPM-2, read-out: IC50 against OPM-2. As to the method: as §9
(§10) Using the same method as in Example 2, CWR22RV1 cells were replaced with tumor cells in Table 3, and for the inhibitory activities against these tumor cells, the IC50 values (nM) of the compounds according to the present invention were tested and calculated.

The subject of another test is MCF-7. Briefly: Proliferation of MCF-7 breast cancer cells (CCK-8). Type of test: cell-based. The following applies: breast cancer cell line MCF-7, read-out: IC50 against MCF-7. As to the method: as §9, §10
For another test, the system named is MOLM-16. Briefly: Proliferation of MOLM-16 leukemia cells (CCK-8). Particulars: leukemia cell line MOLM-16, read-out: IC50 against MOLM-16. Type of test: cell-based. As to the method: as §9, §10
A further test concerns VCAP. Briefly: Proliferation of VCAP prostate cancer cells (CCK-8). Particulars: prostate cancer cell line VCAP, read-out: IC50 against VCAP. Type of test: cell-based. As to the method: as §9, §10
A further test relates to LNCAP. Briefly: Proliferation of LNCAP prostate cancer cells (CCK-8). It counts as cell-based. The following applies: prostate cancer cell line LNCAP, read-out: IC50 against LNCAP. As to the method: as §9, §10
For the next test, the system named is LNCAP-AR. Description: Proliferation of LNCAP-AR prostate cancer cells (CCK-8). It counts as cell-based. Particulars: prostate cancer cell line LNCAP-AR; read-out: IC50 against LNCAP-AR. As to the method: as §9, §10
For a further test, the system named is MCF-7 cells. Description: Combination with CDK4/6 inhibitor palbociclib, proliferation of MCF-7 breast cancer cells. The following applies: Homo sapiens, MCF7, administrated alone; read-out: IC50 against MCF-7 cells. Type of test: cell-based. As to the method: (§11) Prior to use, the stock solution was diluted in a ratio of 1:3 with DMSO and then further diluted in a ratio of 1:3 to obtain 9 gradient concentrations. Each concentration of compound was diluted in a ratio of 1:200 with culture medium (to ensure the concentration of DMSO in the culture system was 0.1%). Two wells were set for each concentration. 20 μL of diluted compound solution was added to the cell culture well (with a final concentration of 10 μM, 3.3 μM, 1.1 μM, etc.); the stock solution of palbociclib was diluted with the culture medium as 500 nM, 150 nM, 50 nM, 5 nM, respectively, and then 20 μL of diluted palbociclib solution was added to the cell culture well ([…]). The plate was gently shaken to mix well. In addition, three negative control wells containing only cells and three blank control wells containing only culture medium (6 wells being each added with DMSO diluted in a ratio of 1:200 using 20 μL of culture medium) were included. 2. Test Results: • (1) After the plate was cultured for 6 days, 10 μL of CCK-8 was added to each well, and then the plate was continually cultured in a 5% CO2 incubator at 37° C. for 2.5 h. • (2) The absorbance (OD value) was measured at 450 nm with a microplate reader. • (3) Data were analyzed using the Dose-response-inhibition equation in the software GraphPad Prisms 6 to obtain IC50 values. 3. Experimental Results
Using the same method as in Example 4, CWR22RV1 cells were replaced with MCF-7 cells, and for the inhibitory activities against the proliferation of MCF-7 cells, the IC50 values (nM) of the compounds according to the present invention, palbociclib, and the combination of the compound according to the present invention and palbociclib were tested and calculated.

Test [2] concerns CWR22RV1 cells. Briefly: Combination with CDK4/6 inhibitor palbociclib, proliferation of CWR22RV1 prostate cancer cells. Type of test: cell-based. The following applies: CWR22Rv1, administrated alone; read-out: IC50 against CWR22RV1 cells. As for the experimental part:
as §11

Setting [3] is: CWR22Rv1, 144 h, 6 days, CCK-8, class symbols, read-out: IC50 against CWR22RV1 cells.

Where two headings read alike, the source gives them in different places.

CBP BRD, sequence (Q92793 1085-1192): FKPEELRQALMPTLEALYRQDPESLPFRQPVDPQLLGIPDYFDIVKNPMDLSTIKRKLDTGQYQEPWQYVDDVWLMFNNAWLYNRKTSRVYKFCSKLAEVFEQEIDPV
EP300 BRD, sequence (Q09472 1049-1156): as the sequence (Q92793 1085-1192) above, with N47S, V73I, F93Y, A98S counted along it

In general, IC50 refers to the concentration that inhibits the measured activity by half. For the compound `CO[C@H]1CC[C@H](n2c([C@@H]3CCOCC(=O)N3c3ccc(F)c(F)c3)nc3cc(-c4c(C)noc4C)ccc32)CC1` [Compound 106], the half-inhibitory concentration (IC50) is 4.8 nM at CBP BRD, 2.2 nM at EP300 BRD and 500 to 2000 nM in the test with CWR22RV1 cells [1] (setting [3]).

`CO[C@H]1CC[C@H](n2c([C@H]3COCC(=O)N3c3ccc(F)c(F)c3)nc3cc(-c4c(C)noc4C)ccc32)CC1` [Compound 112, (S)-4-(3,4-difluorophenyl)-5-(5-(3,5-dimethylisoxazol-4-yl)-1-((trans)-4-methoxycyclohexyl)-1H-benzo[d]imidazol-2-yl)morphine-3-one]: the IC50 was 2 nM on CBP BRD; 1.7 nM on EP300 BRD; under 500 nM in the test with CWR22RV1 cells [1] (CWR22Rv1, 144 h, read-out: IC50 against CWR22RV1 cells); under 500 nM with CWR22RV1 cells [1] (CWR22Rv1, 144 h, read-out: IC50 against CWR22RV1 prostate cancer cells).

Consider `CO[C@H]1CC[C@H](n2c([C@@H]3CCOC(=O)N3c3ccc(Cl)c(F)c3)nc3cc(-c4c(C)noc4C)ccc32)CC1` [Compound 117, (S)-3-(3-fluoro-4-chlorophenyl)-4-(5-(3,5-dimethylisoxazol-4-yl)-1-((trans)-4-methoxycyclohexyl)-1H-benzo[d]imidazol-2-yl)-1,3-oxazinane-2-one], for which the IC50 in the test on OPM-2 (Homo sapiens) was under 500 nM; on CBP BRD, 0.71 nM; in the test on MCF-7 (Homo sapiens, MCF7), under 500 nM; with MOLM-16 (MOLM16), under 500 nM; with VCAP (Homo sapiens), under 500 nM; in the test with LNCAP (Homo sapiens), under 500 nM. The IC50 is 0.73 nM on EP300 BRD; under 500 nM with LNCAP-AR; under 500 nM in the test on CWR22RV1 cells [1] (CWR22Rv1, 144 h, 6 days, CCK-8, bound stated, read-out: IC50 against CWR22RV1 prostate cancer cells); under 500 nM with CWR22RV1 cells [1] (setting [3]).

As to `COc1cccc(-c2nc3cc(-c4c(C)noc4C)ccc3n2[C@H]2CC[C@H](OC)CC2)c1-c1ccc(F)cc1` [Compound 141], the values for the concentration for half-maximal inhibition (IC50) at CBP BRD, at EP300 BRD and in the test on CWR22RV1 cells [1] (setting [3]) were 22 nM, 9.6 nM and over 2000 nM, respectively.

Consider `CO[C@H]1C[C@@H](n2c([C@@H]3CCOC(=O)N3c3ccc(F)c(F)c3)nc3cc(-c4c(C)noc4C)ccc32)C1` [Compound 143], for which the IC50 was 4.7 nM at CBP BRD, 2.7 nM at EP300 BRD and 500 to 2000 nM in the test with CWR22RV1 cells [1] (setting [3]).

For the compound `CCO[C@H]1CC[C@H](n2c([C@@H]3CCOC(=O)N3c3ccc(F)c(F)c3)nc3cc(-c4c(C)noc4C)ccc32)CC1` [Compound 171, (S)-3-(3,4-difluorophenyl)-4-(5-(3,5-dimethylisoxazol-4-yl)-1-((trans)-4-ethoxycyclohexyl)-1H-benzo[d]imidazol-2-yl)-1,3-oxazinane-2-one], the IC50 is under 500 nM with OPM-2 (Homo sapiens); 1.8 nM at CBP BRD; under 500 nM in the test with MCF-7 (Homo sapiens, MCF7); under 500 nM in the test on MOLM-16 (MOLM16); under 500 nM in the test on VCAP (Homo sapiens); under 500 nM in the test with LNCAP (Homo sapiens). Further, the half-inhibitory concentration (IC50) at EP300 BRD is 2.4 nM; with LNCAP-AR, under 500 nM; in the test on CWR22RV1 cells [1] (setting [3]), 500 to 2000 nM.

Turning to `CC(=O)c1c(C)c2cnc(Nc3ccc(N4CCNCC4)cn3)nc2n(C2CCCC2)c1=O` [palbociclib, reference compound], the half-maximal inhibitory concentration (IC50) in the test on MCF-7 cells was determined as 12800 nM; with CWR22RV1 cells [2], 100 nM.

Consider “(S)-4-(3,4-difluorophenyl)-5-(5-(3,5-dimethylisoxazol-4-yl)-1-((trans)-4-deuteromethoxycyclohexyl)-1H-benzo[d]imidazol-2-yl)morphine-3-one [Compound 113]”, for which the IC50 in the test on OPM-2, in the test with MCF-7, in the test on MOLM-16, in the test on VCAP, in the test with LNCAP and in the test with LNCAP-AR was under 500 nM throughout. Besides, the IC50 in the test on CWR22RV1 cells [1] (6 days, CCK-8, bound stated, read-out: IC50 against CWR22RV1 prostate cancer cells) is under 500 nM; with CWR22RV1 cells [1] (6 days, CCK-8, class symbols, read-out: IC50 against CWR22RV1 cells) it was under 500 nM.
